Data on 20 compounds can be found in paper PMC10149103 (Journal of medicinal chemistry, 2022).

Molecules are shown by their SMILES. Where “and” joins values, the source holds several entries; their conditions need not be identical. Identical values can stand only once. Counter-ions that a name gives are not always drawn.

Assay [1] deals with T1, DOR (Homo sapiens, UniProt P41143). Kind of assay: biochemical. In kind it is binding.
Assay [2] has as its target T2, KOR (Mus musculus, UniProt P33534). The format is binding.
The next assay deals with MOR (Mus musculus, UniProt P42866). Briefly: biochemical. In kind it is biochemical. The note with it: for Emax: read-out: MOR [35S]GTPγS Binding % Emax of DAMGO. (GTPγS is a poorly hydrolysed GTP analogue; its binding reports G protein activation.)
Assay [3] addresses T1, DOR. Briefly: biochemical. The note with it: read-out: DOR [35S]GTPγS Binding % Emax of SNC80.
Assay [4] addresses T2, KOR. Kind of assay: biochemical. Particulars: read-out: KOR [35S]GTPγS Binding % Emax of U50,488H.

What is called Ki is a measure of affinity in units of concentration, obtained from inhibition or displacement. Low values mean a stronger hold on the target, high ones a looser hold on the target. The Emax is the size of the effect at its maximum, as opposed to the concentration needed.

T2 sequence (P33534 whole entry): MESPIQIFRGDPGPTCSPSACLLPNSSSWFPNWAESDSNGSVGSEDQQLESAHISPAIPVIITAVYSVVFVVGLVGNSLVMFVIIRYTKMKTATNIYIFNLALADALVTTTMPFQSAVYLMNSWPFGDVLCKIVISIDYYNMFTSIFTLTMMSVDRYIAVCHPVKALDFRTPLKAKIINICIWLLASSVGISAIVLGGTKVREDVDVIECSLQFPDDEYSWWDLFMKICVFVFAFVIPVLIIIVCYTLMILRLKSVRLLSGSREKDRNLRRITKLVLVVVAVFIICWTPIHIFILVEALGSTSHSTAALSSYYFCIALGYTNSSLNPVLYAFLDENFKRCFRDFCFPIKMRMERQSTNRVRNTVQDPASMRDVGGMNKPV
T1 sequence (P41143 whole entry): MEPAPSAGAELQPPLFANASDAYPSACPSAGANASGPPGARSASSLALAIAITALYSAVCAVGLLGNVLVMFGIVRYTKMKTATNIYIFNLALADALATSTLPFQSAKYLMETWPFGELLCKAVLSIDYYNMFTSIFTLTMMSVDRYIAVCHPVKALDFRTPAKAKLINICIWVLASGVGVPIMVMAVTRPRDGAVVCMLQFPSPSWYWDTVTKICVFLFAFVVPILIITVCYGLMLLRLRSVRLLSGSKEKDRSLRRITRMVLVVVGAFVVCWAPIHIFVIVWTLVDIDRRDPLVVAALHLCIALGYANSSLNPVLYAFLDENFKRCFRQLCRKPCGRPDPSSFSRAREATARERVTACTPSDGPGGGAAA
Chain of MOR (P42866 whole entry): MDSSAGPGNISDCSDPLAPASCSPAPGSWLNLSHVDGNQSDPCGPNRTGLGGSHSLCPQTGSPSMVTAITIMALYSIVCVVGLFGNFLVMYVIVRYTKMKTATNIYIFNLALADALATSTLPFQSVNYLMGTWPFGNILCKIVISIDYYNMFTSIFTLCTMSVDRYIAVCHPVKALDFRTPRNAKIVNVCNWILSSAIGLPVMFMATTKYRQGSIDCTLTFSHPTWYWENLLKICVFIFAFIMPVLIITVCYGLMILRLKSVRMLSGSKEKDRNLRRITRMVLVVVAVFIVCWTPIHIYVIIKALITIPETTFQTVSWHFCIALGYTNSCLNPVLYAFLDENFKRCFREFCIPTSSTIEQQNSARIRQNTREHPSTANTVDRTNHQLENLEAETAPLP

On to `O=C(Cc1cccs1)N[C@H]1CC[C@@]2(O)[C@H]3Cc4ccc(O)c5c4[C@@]2(CCN3CC2CC2)[C@H]1O5` [Compound 27, 17-Cyclopropylmethyl-3,14β-dihydroxy-4,5α-epoxy-6α-(2′-thienylacetamido)morphinan Hydrochloride], for which, on DOR [1], the inhibition constant Ki was determined as 6.92 ± 1.63 nM.

Consider `Cl.O=C(Cc1ccoc1)N[C@@H]1CC[C@@]2(O)[C@H]3Cc4ccc(O)c5c4[C@@]2(CCN3CC2CC2)[C@H]1O5` [Compound 22, 17-Cyclopropylmetyl-3,14β-dihydroxy-4,5α-epoxy-6β-[(3′-furanyl)acetamido]morphinan Hydrochloride], for which the “Selectivity δ/μ” value at DOR [1] was 332. Besides, at KOR [2], the “Selectivity κ/μ” value is 16.7 and 17. Also, the Emax at MOR was 30.8 ± 2.07%.

Take `Cl.O=C(Cc1ccco1)N[C@@H]1CC[C@@]2(O)[C@H]3Cc4ccc(O)c5c4[C@@]2(CCN3CC2CC2)[C@H]1O5` [Compound 16, 17-Cyclopropylmethyl-3,14β-dihydroxy-4,5α-epoxy-6β-[(2′-furanyl)acetamido]morphinan Hydrochloride]: the Emax was determined as 31.2 ± 1.49% at DOR [3], 40 ± 0.9% at MOR and 49.3 ± 1.07% at KOR [4].

On to `Cl.O=C(Cc1ccc[nH]1)N[C@@H]1CC[C@@]2(O)[C@H]3Cc4ccc(O)c5c4[C@@]2(CCN3CC2CC2)[C@H]1O5` [Compound 4, 17-Cyclopropylmethyl-3,14β-dihydroxy-4,5α-epoxy-6β-[2′-(2′-pyrrolyl)acetamido]morphinan Hydrochloride], for which, at DOR [1], the “Selectivity δ/μ” value is on record as 152. Moreover, the “Selectivity κ/μ” value at KOR [2] was found to be 8. On MOR, the Emax turned out to be 44.2 ± 1.52%.

For `Cl.O=C(Cc1cc[nH]c1)N[C@H]1CC[C@@]2(O)[C@H]3Cc4ccc(O)c5c4[C@@]2(CCN3CC2CC2)[C@H]1O5` [Compound 9, 17-Cyclopropylmethyl-3, 14β-dihydroxy-4,5α-epoxy-6α-[(3′-pyrrolyl)acetamido]morphinan Hydrochloride], the “Selectivity δ/μ” value at DOR [1] came out at 4. Moreover, the “Selectivity κ/μ” value on KOR [2] was 5. On MOR, the Emax came out at 31.6 ± 2.87%.

`Cl.O=C(CCc1cc[nH]c1)N[C@@H]1CC[C@@]2(O)[C@H]3Cc4ccc(O)c5c4[C@@]2(CCN3CC2CC2)[C@H]1O5` [Compound 12]: the “Selectivity δ/μ” value on DOR [1] is on record as 164. The “Selectivity κ/μ” value on KOR [2] is listed as 7. On MOR, the Emax stood at 37.7 ± 0.87%.

Take `Cl.O=C(Cc1ccoc1)N[C@H]1CC[C@@]2(O)[C@H]3Cc4ccc(O)c5c4[C@@]2(CCN3CC2CC2)[C@H]1O5` [Compound 21, 17-Cyclopropylmetyl-3, 14β-dihydroxy-4,5α-epoxy-6α-[(3′-furanyl)acetamido]morphinan Hydrochloride]: the “Selectivity δ/μ” value at DOR [1] was 9. In addition, on KOR [2], the “Selectivity κ/μ” value is 15. In addition, on MOR, the “MOR [35S]GTPγS Binding % Emax of DAMGO” value was 14.95 ± 1.46%.

On to `Cl.O=C(Cc1cc[nH]c1)N[C@@H]1CC[C@@]2(O)[C@H]3Cc4ccc(O)c5c4[C@@]2(CCN3CC2CC2)[C@H]1O5` [Compound 10, 17-Cyclopropylmethyl-3,14β-dihydroxy-4,5α-epoxy-6β-[(3′-pyrrolyl)acetamido]morphinan Hydrochloride], for which the Emax on MOR is 53.3 ± 0.95%.

On to `Cl.O=C(N[C@H]1CC[C@@]2(O)[C@H]3Cc4ccc(O)c5c4[C@@]2(CCN3CC2CC2)[C@H]1O5)c1ccc[nH]1` [Compound 1, 17-Cyclopropylmethyl-3,14β-dihydroxy-4,5α-epoxy-6a-[(2′-pyrrolyl)carboxamido]morphinan Hydrochloride], for which the Emax came out at 50.9 ± 5.25% at DOR [3] and 43.4 ± 1.36% on KOR [4]. The “MOR [35S]GTPγS Binding % Emax of DAMGO” value at MOR is 12.11 ± 2.64%.

As for `Cl.O=C(CCc1ccco1)N[C@H]1CC[C@@]2(O)[C@H]3Cc4ccc(O)c5c4[C@@]2(CCN3CC2CC2)[C@H]1O5` [Compound 17, 17-Cyclopropylmethyl-3, 14β-dihydroxy-4,5α-epoxy-6α-[(2′-furanyl)propanamido]morphinan Hydrochloride], the “Selectivity δ/μ” value at DOR [1] stood at 4.

Consider `Cl.O=C(CCc1ccc[nH]1)N[C@H]1CC[C@@]2(O)[C@H]3Cc4ccc(O)c5c4[C@@]2(CCN3CC2CC2)[C@H]1O5` [Compound 5, 17-Cyclopropylmethyl-3,14β-dihydroxy-4,5α-epoxy-6α[3′-(2′-pyrrolyl)propanamido]morphinan Hydrochloride], for which the Emax at MOR was 24 ± 3.59%.

Consider `Cl.O=C(N[C@H]1CC[C@@]2(O)[C@H]3Cc4ccc(O)c5c4[C@@]2(CCN3CC2CC2)[C@H]1O5)c1cc[nH]c1` [Compound 7, 17-Cyclopropylmethyl-3,14β-dihydroxy-4,5α-epoxy-6α-[(3′-pyrrolyl)carboxamido]morphinan Hydrochloride], for which, at DOR [1], the “Selectivity δ/μ” value amounted to 31. Also, the “Selectivity κ/μ” value at KOR [2] stood at 2. For the same compound, the “MOR [35S]GTPγS Binding % Emax of DAMGO” value on MOR amounted to 16.65 ± 1.25%.

Turning to `Cl.O=C(CCc1ccc[nH]1)N[C@@H]1CC[C@@]2(O)[C@H]3Cc4ccc(O)c5c4[C@@]2(CCN3CC2CC2)[C@H]1O5` [Compound 6, 17-Cyclopropylmethyl-3,14β-dihydroxy-4,5α-epoxy-6β-[3′-(2′-pyrrolyl)propanamido]morphinan Hydrochloride], the “Selectivity δ/μ” value on DOR [1] was determined as 70. Moreover, the “Selectivity κ/μ” value at KOR [2] was 2. Moreover, the Emax on MOR is 39.3 ± 3.16%.

As to `Cl.O=C(N[C@H]1CC[C@@]2(O)[C@H]3Cc4ccc(O)c5c4[C@@]2(CCN3CC2CC2)[C@H]1O5)c1ccco1` [Compound 13, 17-Cyclopropylmethyl-3,14β-dihydroxy-4,5α-epoxy-6α-[(2′furanyl)carboxamido]morphinan Hydrochloride], the “Selectivity δ/μ” value on DOR [1] was 62.83 and 63. Also, the “Selectivity κ/μ” value at KOR [2] was 3.83 and 4. The Emax at MOR was 21.8 ± 5.19%.

On to `Cl.O=C(Cc1ccc[nH]1)N[C@H]1CC[C@@]2(O)[C@H]3Cc4ccc(O)c5c4[C@@]2(CCN3CC2CC2)[C@H]1O5` [Compound 3, 17-Cyclopropylmethyl-3,14β-dihydroxy-4,5α-epoxy-6a-[2′-(2′-pyrrolyl)acetamido]morphinan Hydrochloride], for which, on DOR [1], the “Selectivity δ/μ” value was determined as 8. Also, the “Selectivity κ/μ” value at KOR [2] was 6. At MOR, the Emax was determined as 25 ± 2.61%.

Turning to `Cl.O=C(N[C@@H]1CC[C@@]2(O)[C@H]3Cc4ccc(O)c5c4[C@@]2(CCN3CC2CC2)[C@H]1O5)c1ccoc1` [Compound 20, 17-Cyclopropylmethyl-3,14β-dihydroxy-4,5α-epoxy-6β-[(3′-furanyl)carboxamido]morphinan Hydrochloride], the “Selectivity δ/μ” value on DOR [1] came to 234. For the same compound, on KOR [2], the “Selectivity κ/μ” value is given as 3. Further, the Emax at MOR stood at 25 ± 1.74%.

For `Cl.O=C(N[C@@H]1CC[C@@]2(O)[C@H]3Cc4ccc(O)c5c4[C@@]2(CCN3CC2CC2)[C@H]1O5)c1ccco1` [Compound 14, 17-Cyclopropylmethyl-3,14β-dihydroxy-4,5α-epoxy-6β-[(2′furanyl)carboxamido]morphinan Hydrochloride], the values for the Emax at DOR [3], on MOR and on KOR [4] were 23.1 ± 0.97%, 24.2 ± 0.9% and 67.2 ± 2.53%, respectively.

`Cl.O=C(N[C@H]1CC[C@@]2(O)[C@H]3Cc4ccc(O)c5c4[C@@]2(CCN3CC2CC2)[C@H]1O5)c1ccoc1` [Compound 19, 17-Cyclopropylmethyl-3, 14β-dihydroxy-4,5α-epoxy-6α-[(3′-furanyl)carboxamido]morphinan Hydrochloride]: the “MOR [35S]GTPγS Binding % Emax of DAMGO” value at MOR was 18.14 ± 2.95%.

In the case of `Cl.O=C(Cc1ccco1)N[C@H]1CC[C@@]2(O)[C@H]3Cc4ccc(O)c5c4[C@@]2(CCN3CC2CC2)[C@H]1O5` [Compound 15, 17-Cyclopropylmethyl-3, 14β-dihydroxy-4,5α-epoxy-6α-[(2′-furanyl)acetamido]morphinan Hydrochloride], the Emax on DOR [3] turned out to be 66.8 ± 4.24%; at MOR, 22.6 ± 2.77%; at KOR [4], 63.3 ± 2.5%.

`Cl.O=C(CCc1ccco1)N[C@@H]1CC[C@@]2(O)[C@H]3Cc4ccc(O)c5c4[C@@]2(CCN3CC2CC2)[C@H]1O5` [Compound 18, 17-Cyclopropylmethyl-3,14β-dihydroxy-4,5α-epoxy-6β-[(2′-furanyl)propanamido]morphinan Hydrochloride]: on DOR [1], the “Selectivity δ/μ” value is on record as 118. For the same compound, the “Selectivity κ/μ” value at KOR [2] amounted to 2.
